Assay results taken from ChEMBL document CHEMBL2440076, “New triarylpyrazoles as broad-spectrum anticancer agents: design, synthesis, and biological evaluation” (Eur J Med Chem, 2013).

Legend:
Format in all cases: functional
SF-268 [1] = assay: Growth inhibition of human SF268 cells assessed as cell growth at 3X10'-7 M after 48 hrs by sulforhodamine B assay; details: SF-268, 48 h, read-out: Activity
MOLT-4 = assay: Growth inhibition of human MOLT4 cells assessed as cell growth at 3X10'-9 M after 48 hrs by sulforhodamine B assay; details: MOLT-4, 48 h, read-out: Activity
KM12 = assay: Growth inhibition of human KM12 cells assessed as cell growth at 3X10'-7 M after 48 hrs by sulforhodamine B assay; details: KM12, 48 h, read-out: Activity
HL-60(TB) [2] = assay: Growth inhibition of human HL-60(TB) cells assessed as cell growth at 3X10'-8 M after 48 hrs by sulforhodamine B assay; details: HL-60, 48 h, read-out: Activity
M14 = assay: Growth inhibition of human M14 cells assessed as cell growth at 3X10'-9 M after 48 hrs by sulforhodamine B assay; details: M14, 48 h, read-out: Activity
MDA-MB-468 [3] = assay: Growth inhibition of human MDA-MB-468 cells assessed as cell growth at 3X10'-7 M after 48 hrs by sulforhodamine B assay; details: MDA-MB-468, 48 h, read-out: Activity
MDA-MB-231 = assay: Growth inhibition of human MDA-MB-231 cells assessed as cell growth at 3X10'-9 M after 48 hrs by sulforhodamine B assay; details: MDA-MB-231, 48 h, read-out: Activity
SR [4] = assay: Growth inhibition of human SR cells assessed as cell growth at 3X10'-8 M after 48 hrs by sulforhodamine B assay; details: read-out: Activity
SNB-19 = assay: Growth inhibition of human SNB19 cells assessed as cell growth at 3X10'-8 M after 48 hrs by sulforhodamine B assay; details: SNB-19, 48 h, read-out: Activity
MDA-MB-468 [5] = assay: Growth inhibition of human MDA-MB-468 cells assessed as cell growth at 3X10'-6 M after 48 hrs by sulforhodamine B assay; details: MDA-MB-468, 48 h, read-out: Activity
U-251 [6] = assay: Growth inhibition of human U251 cells assessed as cell growth at 3X10'-5 M after 48 hrs by sulforhodamine B assay; details: U-251, 48 h, read-out: Activity
MCF7 = assay: Growth inhibition of human MCF7 cells assessed as cell growth at 3X10'-8 M after 48 hrs by sulforhodamine B assay; details: MCF7, 48 h, read-out: Activity
SK-MEL-28 = assay: Growth inhibition of human SK-MEL-28 cells assessed as cell growth at 3X10'-8 M after 48 hrs by sulforhodamine B assay; details: SK-MEL-28, 48 h, read-out: Activity
NCI-H322M = assay: Growth inhibition of human NCI-H322M cells assessed as cell growth at 3X10'-6 M after 48 hrs by sulforhodamine B assay; details: read-out: Activity
HOP-92 = assay: Growth inhibition of human HOP92 cells assessed as cell growth at 3X10'-5 M after 48 hrs by sulforhodamine B assay; details: HOP-92, 48 h, read-out: Activity
SR [7] = assay: Growth inhibition of human SR cells assessed as cell growth at 3X10'-6 M after 48 hrs by sulforhodamine B assay; details: read-out: Activity
BT-549 = assay: Growth inhibition of human BT549 cells assessed as cell growth at 3X10'-8 M after 48 hrs by sulforhodamine B assay; details: BT-549, 48 h, read-out: Activity
K562 = assay: Growth inhibition of human K562 cells assessed as cell growth at 3X10'-6 M after 48 hrs by sulforhodamine B assay; details: K562, 48 h, read-out: Activity
HL-60(TB) [8] = assay: Growth inhibition of human HL-60(TB) cells assessed as cell growth at 3X10'-6 M after 48 hrs by sulforhodamine B assay; details: HL-60, 48 h, read-out: Activity
NCI-H226 = assay: Growth inhibition of human NCI-H226 cells assessed as cell growth at 3X10'-6 M after 48 hrs by sulforhodamine B assay; details: NCI-H226, 48 h, read-out: Activity
SF-295 = assay: Growth inhibition of human SF295 cells assessed as cell growth at 3X10'-9 M after 48 hrs by sulforhodamine B assay; details: SF-295, 48 h, read-out: Activity
OVCAR-4 = assay: Growth inhibition of human OVCAR4 cells assessed as cell growth at 3X10'-9 M after 48 hrs by sulforhodamine B assay; details: OVCAR-4, 48 h, read-out: Activity
SN12C [9] = assay: Growth inhibition of human SN12C cells assessed as cell growth at 3X10'-9 M after 48 hrs by sulforhodamine B assay; details: read-out: Activity
U-251 [10] = assay: Growth inhibition of human U251 cells assessed as cell growth at 3X10'-9 M after 48 hrs by sulforhodamine B assay; details: U-251, 48 h, read-out: Activity
SW-620 = assay: Growth inhibition of human SW620 cells assessed as cell growth at 3X10'-8 M after 48 hrs by sulforhodamine B assay; details: SW-620, 48 h, read-out: Activity
[11] = Growth inhibition of human Hs 578T cells assessed as cell growth at 3X10'-7 M after 48 hrs by sulforhodamine B assay; details: read-out: Activity
SR [12] = assay: Growth inhibition of human SR cells assessed as cell growth at 3X10'-9 M after 48 hrs by sulforhodamine B assay; details: read-out: Activity
[13] = Growth inhibition of human NCI-ADR-RES cells assessed as cell growth at 3X10'-8 M after 48 hrs by sulforhodamine B assay; details: read-out: Activity
IGROV-1 = assay: Growth inhibition of human IGROV1 cells assessed as cell growth at 3X10'-7 M after 48 hrs by sulforhodamine B assay; details: IGROV-1, 48 h, read-out: Activity
SF-268 [14] = assay: Growth inhibition of human SF268 cells assessed as cell growth at 3X10'-5 M after 48 hrs by sulforhodamine B assay; details: SF-268, 48 h, read-out: Activity
RXF 393 = assay: Growth inhibition of human RXF393 cells assessed as cell growth at 3X10'-5 M after 48 hrs by sulforhodamine B assay; details: RXF 393, 48 h, read-out: Activity
SN12C [15] = assay: Growth inhibition of human SN12C cells assessed as cell growth at 3X10'-5 M after 48 hrs by sulforhodamine B assay; details: read-out: Activity
CAKI-1 = assay: Growth inhibition of human CAKI-1 cells assessed as cell growth at 3X10'-6 M after 48 hrs by sulforhodamine B assay; details: CAKI-1, 48 h, read-out: Activity
LOX IMVI = assay: Growth inhibition of human LOXIMVI cells assessed as cell growth at 3X10'-5 M after 48 hrs by sulforhodamine B assay; details: read-out: Activity
NCI-H23 = assay: Growth inhibition of human NCI-H23 cells assessed as cell growth at 3X10'-6 M after 48 hrs by sulforhodamine B assay; details: NCI-H23, 48 h, read-out: Activity
U-251 [16] = assay: Growth inhibition of human U251 cells assessed as cell growth at 3X10'-8 M after 48 hrs by sulforhodamine B assay; details: U-251, 48 h, read-out: Activity
SF-268 [17] = assay: Growth inhibition of human SF268 cells assessed as cell growth at 3X10'-6 M after 48 hrs by sulforhodamine B assay; details: SF-268, 48 h, read-out: Activity

Row | SMILES | growth at 0.3 µM (SF-268 [1]) | growth at 0.003 µM (MOLT-4) | growth at 0.3 µM (KM12) | growth at 0.03 µM (HL-60(TB) [2]) | growth at 0.003 µM (M14) | growth at 0.3 µM (MDA-MB-468 [3]) | growth at 0.003 µM (MDA-MB-231) | growth at 0.03 µM (SR [4]) | growth at 0.03 µM (SNB-19) | growth at 3 µM (MDA-MB-468 [5]) | growth at 30 µM (U-251 [6]) | growth at 0.03 µM (MCF7) | growth at 0.03 µM (SK-MEL-28) | growth at 3 µM (NCI-H322M) | growth at 30 µM (HOP-92) | growth at 3 µM (SR [7]) | growth at 0.03 µM (BT-549) | growth at 3 µM (K562) | growth at 3 µM (HL-60(TB) [8]) | growth at 3 µM (NCI-H226) | also measured
1 | COc1cc(-c2nn(-c3cccc(NC(=O)Nc4ccc(Cl)c(C(F)(F)F)c4)c3)cc2-c2ccncc2)ccc1Cl | 97% | 104% | 95% | 103% | 106% | 81% | 89% | 107% | 93% | 6% | -58% | 92% | 95% | 29% | -46% | -13% | 113% | 12% | 2% | 38% | growth at 0.003 µM (SF-295): 92%; growth at 0.003 µM (OVCAR-4): 96%; growth at 0.003 µM (SN12C [9]): 95%; growth at 0.003 µM (U-251 [10]): 97%; growth at 0.03 µM (SW-620): 100%; growth at 0.3 µM [11]: 89%; growth at 0.003 µM (SR [12]): 105%; growth at 0.03 µM [13]: 108%; growth at 0.3 µM (IGROV-1): 109%; growth at 30 µM (SF-268 [14]): -31%; growth at 30 µM (RXF 393): -49%; growth at 30 µM (SN12C [15]): -19%; growth at 3 µM (CAKI-1): 4%; growth at 30 µM (LOX IMVI): -72%; growth at 3 µM (NCI-H23): 11%; growth at 0.03 µM (U-251 [16]): 94%; growth at 3 µM (SF-268 [17]): 25%
2 | COc1cc(-c2nn(-c3cccc(NC(=O)c4ccc(Cl)c(C(F)(F)F)c4)c3)cc2-c2ccncc2)ccc1Cl | 89% | 100% | 95% | 113% | 99% | 89% | 99% | 98% | 96% | 52% | 15% | 93% | 100% | 73% | -8% | 5% | 96% | 22% | 58% | 59% | growth at 0.003 µM (SF-295): 92%; growth at 0.003 µM (OVCAR-4): 98%; growth at 0.003 µM (SN12C [9]): 98%; growth at 0.003 µM (U-251 [10]): 96%; growth at 0.03 µM (SW-620): 97%; growth at 0.3 µM [11]: 82%; growth at 0.003 µM (SR [12]): 99%; growth at 0.03 µM [13]: 94%; growth at 0.3 µM (IGROV-1): 95%; growth at 30 µM (SF-268 [14]): 23%; growth at 30 µM (RXF 393): -11%; growth at 30 µM (SN12C [15]): 35%; growth at 3 µM (CAKI-1): 44%; growth at 30 µM (LOX IMVI): 16%; growth at 3 µM (NCI-H23): 59%; growth at 0.03 µM (U-251 [16]): 99%; growth at 3 µM (SF-268 [17]): 56%
